# What was measured:
# [1] = test system: chemokine/cytokine-associated genes; assay: Gene expression analysis of tissue in vicinity of embedded SEK-1005-containing agarose rod; type: in vivo, rat; conditions: Day 7 after embedding, versus SEK-1005-free agarose rod group
# Description: On Day 7 after embedding of the SEK-1005-containing agarose rod by the same operation as in Example 1, the tissue in the vicinity of the place where the rod was embedded was collected. The collected tissue was immediately impregnated with RNA later solution (Life Technologies) to inhibit RNA degradation. RNA in the tissue was extracted by the column method. The extracted RNA was amplified by the Express kit method (Affymetrix) and biotin-labeled, followed by hybridization with a Rat Genome 230 2.0 array (Affymetrix). Signals were read by a Hewlett-Packard GeneArray Scanner G2500A. By such a process, gene expression analysis was carried out for three tissue samples obtained from the vicinities of SEK-1005-containing agarose rods and three tissue samples obtained from the vicinities of control SEK-1005-free agarose rods. The obtained fluorescence intensities were standardized and normalized, and then subjected to statistical analysis. The standardized and normalized gene expression level was statistically compared between the SEK-1005-containing agarose rod group and the control SEK-1005-free agarose rod group. Genes showing increased expression in the SEK-1005-containing agarose rod group were plotted such that their values along the X-axis became positive. Log 2 conversion was carried out in terms of the X-axis. […]
# [2] = test system: CD8+ T cells; assay: Treg suppression assay with CD4+CD25+ cells collected from tissue near the SEK-1005-containing agarose rod; type: cell-based, ACI rats; conditions: Group 2: CFSE-stained CD8+ T cells, 1 μg/mL anti-CD3 antibody plus 2.5×10^4 CD4+CD25+ cells from Day 10 rod tissue, Day 4.5; Group 1 without these cells 42.4%
# Description: On Day 10 after embedding of the SEK-1005-containing agarose rod by the same operation as in Example 1, the tissue in the vicinity of the place where the rod was embedded was collected, and then homogenized, followed by collecting cells from the tissue. The cells were subjected to purification by Percoll density gradient centrifugation to obtain immune cells, and CD4^+CD25^+ cells (a fraction containing a large number of tissue-infiltrating regulatory T cells) were collected using MACS magnetic beads.
# CD8^+ T cells were separately prepared from ACI rats, and the cells were then stained with a fluorescent dye, carboxyfluorescein succinimidyl ester (CFSE). On a 96-well plate, 2.5×10^4 CD8^+ T cells and 5×10^4 antigen-presenting cells were plated in each well, and the cell growth was quantitatively evaluated using a flow cytometer on Day 4.5 after the plating. The wells were divided into three groups. In Group 1, 1 μg/mL anti-CD3 antibody was added to stimulate the growth. In Group 2, 1 μg/mL anti-CD3 antibody as well as 2.5×10^4 CD4^+CD25^+ cells were added. In Group 3, no anti-CD3 antibody was added.
# One round of cell division of T cells stained with a fluorescent dye results in a decrease in the fluorescence intensity to half. Another division results in a decrease in the fluorescent intensity to one fourth of the original intensity. […]
# [3] = test system: regulatory T cells (CD4+Foxp3+ cells); assay: Flow cytometry of immune cells from tissue where SEK-1005-containing agarose rod was embedded under the skin: regulatory T cells; type: in vivo, ACI rats; conditions: for ratio of Foxp3+ cells among CD4+ cells: STZ-diabetic ACI rats
# Protocol: (§1) In a polystyrene tube with an inner diameter of 4 mm, 4.5% agarose solution was poured, and the tube was then left to stand at normal temperature to allow gelation of the agarose solution. The resulting agarose gel rod was removed from the polystyrene tube, and cut into a piece having a length of 25 mm. Subsequently, the agarose gel rod was stored in a freezer at −30° C. overnight to allow freezing of water. By freeze-drying the frozen agarose rod, a porous dry agarose rod was prepared. To the dry agarose rod, 50 μl of a solution of 2 mg/ml SEK-1005 in ethanol was added dropwise to include the SEK-1005 solution in the dry agarose rod. Ethanol was then evaporated by air drying.
# (§2) On the day when the agarose rod was to be embedded, streptozotocin (STZ) (60 mg/kg body weight) was administered to ACI rats to induce diabetes. To each of the left side and the right side of the back of each ACI rat, the agarose rod having a length of 25 mm and a diameter of 4 mm containing 100 μg of SEK-1005 was embedded. On Day 10 after the embedding, the agarose rod was removed. In the vicinity of each place where the agarose rod had been embedded, formation of connective tissue containing a number of blood vessels was found. This tissue was minced with scissors, and then homogenized, followed by collecting cells from the tissue. The cells were subjected to purification by Percoll density gradient centrifugation to obtain immune cells, and the obtained immune cells were analyzed using a flow cytometer.
# The ratio of Foxp3^+ cells among CD4^+ cells was 18.3% on Day 2, 20.8% on Day 7, 23.3% on Day 10, and 27.3% on Day 14 after the SEK-1005-containing agarose rod was embedded under the skin.
# [4] = test system: TGF-β1; assay: TGF-β1 concentration in the exudate at the site of the SEK-1005-containing agarose rod; type: in vivo, ACI rats
# Protocol: as §1, §2
# The TGF-β1 concentration in the exudate was measured. The TGF-β1 concentration was 0.7±0.1 ng/ml until Day 7 after the SEK-1005-containing agarose rod was embedded. […] This was about 3 times the concentration in a treated group in which an SEK-1005-free agarose rod was embedded.
# [5] = test system: cytotoxic T cells (CD8+ T cells); assay: Flow cytometry of immune cells from tissue where SEK-1005-containing agarose rod was embedded under the skin: cytotoxic T cells; type: in vivo, ACI rats
# Protocol: as §1
# as §2, with “On Day 10 after the embedding, the agarose rod was removed.” left out
# In normal subcutaneous tissues, the ratio is about 30%, and, when a foreign substance is embedded, the ratio increases to not less than 50% in most cases. The action of SEK-1005 suppressed such an increase.
# [6] = Blood glucose level after transplantation of pancreatic islets into the site where the SEK-1005-containing agarose rod was embedded; type: in vivo; conditions: then removed, 1,500 F344 rat islets per cavity, STZ-diabetic ACI rats
# Protocol: On the day when the SEK-1005-containing agarose rod was to be embedded, streptozotocin (STZ) (60 mg/kg body weight) was administered to ACI rats to induce diabetes. Under the skin of each of the left side and the right side of the back of each ACI rat, the agarose rod prepared in the same way as Example 1 was embedded. On Day 2 or Day 10 after the embedding, the agarose rod was removed, and 1,500 pieces of pancreatic islets separated from the pancreases of F344 rats were transplanted to each of the two dorsal subcutaneous cavities formed. After the transplantation, the blood glucose levels of the rats were measured. […] When SEK-1005-free agarose rod was embedded in the STZ-administered rats for 10 days and after removal of the agarose-rod, pancreatic islets were transplanted to the embedded site, the blood glucose levels of the diabetic rats were not decreased.
smiles,measurement,setting,value
"CC(C)CC1CCC(O)(C(C)(O)C(=O)NC2C(=O)N3NCCCC3C(=O)N(O)C(C)C(=O)N(C)C(Cc3ccccc3)C(=O)N3NCCCC3C(=O)NC(CO)C(=O)OC2C(C)C)OC1C (stereo not drawn) [SEK-1005, Ser, 3-hydroxy-N-[2-hydroxy-1-oxo-2-tetrahydro-2-hydroxy-6-methyl-5-(2-methylpropyl)-2H-pyran-2-yl-propyl]-Leu-Pip(hexahydro-3-pyridazinecarbonyl)-N-hydroxy-Ala-N-methyl-Phe-Pip-rho-lactone]",expression of genes associated with migration/induction of regulatory T cells among chemokine/cytokine-associated genes,[1],significant increase
same,expression of genes not associated with migration/induction of regulatory T cells among chemokine/cytokine-associated genes,[1],significant decrease
same,ratio of cells exhibiting decreased fluorescence intensity due to cell division,[2],13.4%
same,ratio of Foxp3+ cells among CD4+ cells,[3]; Day 2 after rod with 100 μg SEK-1005 embedded under the skin,18.3%
same,ratio of Foxp3+ cells among CD4+ cells,[3]; Day 7 after rod with 100 μg SEK-1005 embedded under the skin,20.8%
same,ratio of Foxp3+ cells among CD4+ cells,[3]; Day 10 after rod with 100 μg SEK-1005 embedded under the skin,23.3%
same,ratio of Foxp3+ cells among CD4+ cells,[3]; Day 14 after rod with 100 μg SEK-1005 embedded under the skin,27.3%
same,increase of ratio of regulatory T cells (CD4+Foxp3+ cells),[3]; versus about 10% in normal subcutaneous tissues,2- to 3 fold
same,TGF-β1 concentration in the exudate,[4]; Day 10 after the embedding,2.0 ± 1.0 ng/mL
same,TGF-β1 concentration relative to SEK-1005-free agarose rod group,[4]; Day 10 after the embedding,about 3 times
same,TGF-β1 concentration in the exudate,[4]; until Day 7 after the rod was embedded,0.7 ± 0.1 ng/mL
same,ratio of cytotoxic T cells (CD8+ T cells) to CD4+ cells among CD3+ cells,[5]; Day 2 after SEK-1005-containing agarose rod embedded under the skin,36.1%
same,ratio of cytotoxic T cells (CD8+ T cells) to CD4+ cells among CD3+ cells,[5]; Day 7 after SEK-1005-containing agarose rod embedded under the skin,33.7%
same,ratio of cytotoxic T cells (CD8+ T cells) to CD4+ cells among CD3+ cells,[5]; Day 10 after SEK-1005-containing agarose rod embedded under the skin,25.5%
same,ratio of cytotoxic T cells (CD8+ T cells) to CD4+ cells among CD3+ cells,[5]; Day 14 after SEK-1005-containing agarose rod embedded under the skin,23.9%
same,blood glucose levels after transplantation of pancreatic islets,[6]; rod embedded for ten days,normalized
same,blood glucose levels after transplantation of pancreatic islets,[6]; rod embedded for two days,> 400 mg/dL

# Reference: patent US10238714B2, “Method for forming an immune-tolerant site and method for attracting immunosuppressive cells” (KYOTO UNIVERSITY, priority 2015, dated 2019)
